# Experimental data published in patent publication US20250049037A1, “HERBICIDAL ACTIVITY OF ALKYL PHOSPHINATES” (priority 2021, published 2025).
# Legend:
# Type in all cases: in vivo
# [1] = test system: Setaria viridis (SETVI); test: Greenhouse herbicidal test, post-emergence; details: postemergence, application rate 5 kg/ha, scale 0 to 100
# Excerpt: (§1) The culture containers used were plastic flowerpots containing loamy sand with approximately 3.0% of humus as the substrate. The seeds of the test plants were sown separately for each species.
# (§2) For the post-emergence treatment, the test plants were first grown to a height of 2 to 15 cm, depending on the plant habit, and only then treated with the active ingredients which had been suspended or emulsified in water. For this purpose, the test plants were either sown directly and grown in the same containers, or they were first grown separately as seedlings and transplanted into the test containers a few days prior to treatment.
# (§3) Depending on the species, the test plants were kept at 10-25° C. or 20-35° C., respectively.
# (§4) The test period extended over 2 to 4 weeks. During this time, the test plants were tended, and their response to the individual treatments was evaluated.
# (§5) Evaluation was carried out using a scale from 0 to 100. 100 means no emergence of the test plants, or complete destruction of at least the aerial moieties, and 0 means no damage, or normal course of growth. A moderate herbicidal activity is given at values of 40 to 59, good herbicidal activity is given at values of more than 59 to 80 and a very good herbicidal activity is given at values of more than 80 to 100.
# [2] = test system: Amaranthus retroflexus (AMARE); test: Greenhouse herbicidal test, post-emergence; details: postemergence, application rate 5 kg/ha, scale 0 to 100
# Excerpt: as §1, §2, §3, §4, §5
# [3] = test system: Echinocloa crus-galli (ECHCG); test: Greenhouse herbicidal test, post-emergence; details: postemergence, application rate 5 kg/ha, scale 0 to 100
# Excerpt: as §1, §2, §3, §4, §5
# [4] = test system: Apera spica-venti (APESV); test: Greenhouse herbicidal test, pre-emergence; details: application rate 5 kg/ha, scale 0 to 100
# Excerpt: as §1
# For the pre-emergence treatment, the active ingredients, which had been suspended or emulsified in water, were applied directly after sowing by means of finely distributing nozzles. The containers were irrigated gently to promote germination and growth and subsequently covered with transparent plastic hoods until the test plants had rooted. This cover caused uniform germination of the test plants, unless this had been impaired by the active ingredients.
# as §3, §4, §5
# [5] = test system: Alopercurus myosuroides (ALOMY); test: Greenhouse herbicidal test, post-emergence; details: postemergence, application rate 5 kg/ha, scale 0 to 100
# Excerpt: as §1, §2, §3, §4, §5
smiles,measurement,setting,value
CP(=O)(O)CCC1NC(=O)NC1=O (centres unmarked) [Compound e],herbicidal activity against SETVI,[1],good (good herbicidal activity is given at values of more than 59 to 80)
"CCCCOP(C)(=O)CCC(NC(N)=O)C(=O)O (centres unmarked) [Compound f, 4-[butoxy(methyl)phosphoryl]-2-ureido-butanoic acid]",herbicidal activity against AMARE,[2],good (good herbicidal activity is given at values of more than 59 to 80)
same,herbicidal activity against ECHCG,[3],good (good herbicidal activity is given at values of more than 59 to 80)
CP(=O)(O)CC[C@@H](NC(N)=O)C(=O)O [Compound b],herbicidal activity against APESV,[4],good (good herbicidal activity is given at values of more than 59 to 80)
CP(=O)(O)CCC(NC(N)=O)C(=O)O (centres unmarked) [Compound a],herbicidal activity against ALOMY,[5],moderate (A moderate herbicidal activity is given at values of 40 to 59)
